# Laboratory results from patent US20260097133A1, “EPIGENETIC EDITING TOOL FOR TARGETING HEPATITIS B VIRUS GENE” (priority 2023, published 2026).
# How the values were obtained:
# [1] = test system: type D hepatitis B virus (GenBank: U95551); experiment: Knockdown of HBV markers in HBV-infected primary hepatocytes (PHH), Example 2; type: cell-based; conditions: for level of viral antigen protein (HBsAg, HBeAg/HBcAg) after end of treatment: sgRNA: single 4 h treatment, RG7834 stopped on day 13
# Text: A primary hepatocyte (PHH) cell line infected with type D hepatitis B virus (GenBank: U95551) was used in this example. […] Therefore, these four sgRNAs were used to formulate the pharmaceutical composition provided in the present application and perform epigenetic editing in primary hepatocytes to validate their inhibitory effect on HBV gene expression.
# Two days after primary hepatocytes were infected with HBV, lipid nanoparticles (LNPs) (LNP preparation reference: https://doi.org/10.1038/s41586-021-03534-y) were used to deliver a composition containing mRNA encoding EPIREG (SEQ ID NO: 1191) and each sgRNA (BSG29, BSG31, BSG34, BSG35) into primary hepatocytes (administration dose was 2.5 μg/ml, the mass ratio of EPIREG to sgRNA was 1:1). The culture supernatant was collected every two days after administration to detect the expression levels of HBV surface antigen (HBsAg) and core antigen (HBcAg) secreted by the cells. Cell samples were collected until 14 days after administration, DNA and RNA were extracted from the cells, and the levels of HBV mRNA and changes in the cccDNA of the HBV gene were detected. The two groups of positive controls used Myrcludex B (WuXi AppTec, C9023GE070-1/PE0723) and RG7834 (WuXi AppTec, ET25747-14-P1), respectively. Myrcludex B could inhibit HBV infection of hepatocytes, and RG7834 could inhibit the synthesis of viral proteins. RG7834 was stopped on the day 13 of the experiment to observe the rebound of viral antigen proteins. (Specific detection methods were performed according to the following kit instructions: HBsAg ELISA kit, Antu-CL 0310; HBeAg ELISA kit, Antu-CL 0312; RNeasy 96 Kit (12), QIAGEN #74182)
# [2] = test system: HBx reporter cell line of type B HBV; experiment: sgRNA functional screening in HBx reporter cell line (293 FT, P2A-EGFP), type B HBV; type: cell-based, type B HBV (serotype adw); conditions: for editing effects in the HBx reporter cell line: type B HBV, different time points after transfection of EPIREG + sgRNA
# Text: (§1) 293 FT was used to construct a reporter cell line for type B, type C and type D HBV surface antigen (HBsAg), core antigen (HBcAg), X protein (HBx) and polymerase (Pol), and the schematic diagram is shown in FIG. 1A. The genomic sequence containing the CpG island and regulatory elements before the protein transcription start site was retained, and the gene sequences of the self-cleaving peptide P2A and EGFP were fused after the 38th amino acid of the HBV surface antigen (HBsAg), the 129th amino acid of the core antigen (HBcAg), the 77th amino acid of the X protein (HBx), and the 177th amino acid of the polymerase (Pol), respectively. The reporter gene was integrated into the 293 FT genome using the PiggyBac transposon system, and a stably transfected cell line was constructed. The intensity of fluorescence was used to reflect the expression level of the protein, thereby quickly performing functional validation and preliminary screening of sgRNAs near the CpG island.
# The screening scheme for sgRNA functional validation using the above-mentioned reporter cell line was designed as follows (FIG. 1B): after the reporter cells were plated, the composition EPIREG described in the present application (the domain of the composition was DNMT3A-hDNMT3L-xten80-ZIM3-xten80-dCas9, with an amino acid sequence as set forth in SEQ ID NO: 1194, and a nucleic acid sequence as set forth in SEQ ID NO: 1192 (CDS sequence) and 1193 (plasmid sequence)) containing different sgRNAs was delivered into the cells by transfection, and the two carried red fluorescence and blue fluorescence, respectively. Flow cytometry was used to sort red fluorescent and blue fluorescent double-positive cell populations, which were cultured for a long time. Flow cytometric analysis was performed every week to detect changes in the fluorescence intensity of the reporter cells, which could reflect changes in protein expression levels after epigenetic editing.
# [3] = test system: HBx reporter cell line of type C HBV; experiment: sgRNA functional screening in HBx reporter cell line (293 FT, P2A-EGFP), type C HBV; type: cell-based, type C HBV (serotype adr)
# Text: as §1, with “island. […]” for “island.”
# [4] = test system: type D hepatitis B virus (GenBank: U95551); experiment: Candidate sgRNA effect validation in HBV-infected primary hepatocytes (PHH), Example 4; type: cell-based; conditions: 14 days after infection
# Text: A primary hepatocyte (PHH) cell line (WuXi AppTec, M00995-P) infected with type D hepatitis B virus (GenBank: U95551) was used in this validation experiment. Based on the screening results of the three libraries in Example 3 and combined with factors such as conservation, the 20 sgRNAs shown in the table below were selected to prepare the pharmaceutical composition provided in the present application and perform epigenetic editing in the primary hepatocytes to validate the inhibitory effect of the screened candidate sgRNAs on HBV gene expression.
# Two days after primary hepatocytes were infected with HBV, lipid nanoparticles (LNPs) (LNP preparation reference: https://doi.org/10.1038/s41586-021-03534-y) were used to deliver the composition comprising the mRNA encoding EPIREG (sequence: SEQ ID NO: 1191) and each of the above-mentioned sgRNAs into primary hepatocytes (administration dose was 2.5 μg/ml, the mass ratio of EPIREG to sgRNA was 1:1). […] The supernatant of the culture medium was collected every two days after administration in each group, and the expression levels of HBV surface antigen (HBsAg), core antigen (HBcAg/HBeAg) and HBV DNA secreted by the cells were detected until 14 days after infection. Cell samples were collected, DNA and RNA in the cells were extracted, and the level of HBV mRNA was detected. […]
# [5] = test system: HBx reporter cell line of type D HBV; experiment: sgRNA functional screening in HBx reporter cell line (293 FT, P2A-EGFP), type D HBV; type: cell-based, type D HBV (serotype ayw)
# Text: as §1, with “island. […]” for “island.”
# [6] = test system: HBV genome (type A, GenBank: AF305422.1); experiment: Knockdown of HBV markers in transgenic HBV mice; type: in vivo, mice (C57BL/6-HBV); conditions: after single administration
# Text: Transgenic HBV mice (Beijing Vitalstar Biotechnology Co., Ltd., C57BL/6-HBV, subsequent feeding and testing were completed by Beijing Vitalstar) were used in this validation experiment. The genome of this strain of mice was inserted with a 1.28-fold length HBV genome (type A, GenBank: AF305422.1). […] Therefore, this sgRNA was used to prepare the pharmaceutical composition provided in the present application and perform epigenetic editing in transgenic HBV mice to validate the inhibitory effect of this drug on the expression of integrated HBV genes in an in vivo model.
# The composition comprising the mRNA encoding EPIREG (sequence: SEQ ID NO: 1191) and sgRNA numbered D99 (BSG35) (mass ratio of mRNA to sgRNA of 1:1) was delivered to transgenic HBV mice (at a dose of 10 mg/kg) by means of tail vein injection of lipid nanoparticles (LNPs) (LNP preparation reference: https://doi.org/10.1038/s41586-021-03534-y). PBS (200 ul) was injected as a negative control, and the antisense oligonucleotide (ASO) drug Bepirovirsen (GSK3228836, dose of 200 mg/kg) was used as a positive control, which could target all HBV RNAs and thus reduce the expression of HBV antigens. After administration, blood was collected regularly in each group to detect the levels of HBV surface antigen (HBsAg) and core antigen (HBcAg/HBeAg) secreted in serum, and the level of HBV DNA was detected by qPCR. […]
# [7] = LNP with EPIREG mRNA + sgRNA 1:1, 2.5 μg/ml, 2-10 days after administration
compound,measurement,setting,value
"COCCCOc1cc2c(cc1OC)-c1cc(=O)c(C(=O)O)cn1[C@H](C(C)C)C2 [RG7834, reference compound]","level of viral antigen protein (HBsAg, HBeAg/HBcAg) after end of treatment",[1],clear rebound (increasing) trend
AGGAGTTCCGCAGTATGGAT [BSG35],inhibitory effect compared with Myrcludex B and RG7834,[1],close to that of the two reference inhibitors
same,"inhibitory effect on HBsAg and HBeAg/HBcAg, comparison among sgRNAs",[1]; 2.5 μg/ml,best effect
same,expression levels of HBsAg and HBeAg/HBcAg in the supernatant (change),"[1]; 2.5 μg/ml, 2-10 days after administration",different degrees of decrease
same,reduction of expression level of HBeAg/HBcAg in the supernatant,[1]; [7],about 80%
same,reduction of expression level of HBsAg in the supernatant,[1]; [7],about 80%
same,time at which expression levels of HBsAg and HBeAg/HBcAg became stable,[1]; after single administration,basically stable on the day 4 after administration
same,"level of viral antigen protein (HBsAg, HBeAg/HBcAg) after end of treatment",[1],remained stable at a low level
same,inhibitory effects on HBx expression,[2]; type B HBV HBx reporter cell line,nearly the best inhibitory effects
same,editing effects in the HBx reporter cell line,[2],extremely high editing effects
same,inhibitory effects on HBx expression,[3],nearly the best inhibitory effects
same,"inhibition level, comparison among the 20 sgRNAs",[4],highest inhibition level
same,inhibitory effects on HBx expression,[5],nearly the best inhibitory effects
"BSG30: sgRNA tested in the HBx reporter cell line of type B HBV (guide CCTGCTGCGAGCAAAACAAG; listed as DNA, chemistry not given here)",editing effects in the HBx reporter cell line,[2],extremely high editing effects
"BSG43: sgRNA tested in the HBx reporter cell line of type B HBV (guide TCCTCTACCGATCCATACTG; listed as DNA, chemistry not given here)",editing effects in the HBx reporter cell line,[2],extremely high editing effects
"BSG50: sgRNA tested in the HBx reporter cell line of type B HBV (guide GATCGGTAGAGGAGACACAA; listed as DNA, chemistry not given here)",editing effects in the HBx reporter cell line,[2],extremely high editing effects
Bepirovirsen [ASO],persistence of effect on HBV markers,[6],gradually returned to their original levels
